Measurements taken from patent US10647713B2 (Nimbus Lakshmi, Inc., priority 2016, dated 2020).

These molecules were tested against human TYK2 (JH2domain-pseudokinase) (Homo sapiens (Human), UniProt P29597) (assay: TYK2 JH2 Domain Binding Assay (KINOMEscan, DiscoveRx)). Conditions: 11-point dilution, duplicate.
Procedure: Binding constants for compounds of the present invention against the JH2 domain were determined by the following protocol for a KINOMEscan® assay (DiscoveRx). A fusion protein of a partial length construct of human TYK2 (JH2domain-pseudokinase) (amino acids G556 to D888 based on reference sequence NP_003322.3) and the DNA binding domain of NFkB was expressed in transiently transfected HEK293 cells. From these HEK 293 cells, extracts were prepared in M-PER extraction buffer (Pierce) in the presence of Protease Inhibitor Cocktail Complete (Roche) and Phosphatase Inhibitor Cocktail Set II (Merck) per manufacturers' instructions. The TYK2 (JH2domain-pseudokinase) fusion protein was labeled with a chimeric double-stranded DNA tag containing the NFkB binding site (5′-GGGAATTCCC-3′) fused to an amplicon for qPCR readout, which was added directly to the expression extract (the final concentration of DNA-tag in the binding reaction is 0.1 nM).
Streptavidin-coated magnetic beads (Dynal M280) were treated with a biotinylated small molecule ligand for 30 minutes at room temperature to generate affinity resins the binding assays. The liganded beads were blocked with excess biotin and washed with blocking buffer (SeaBlock (Pierce), 1% BSA, 0.05% Tween 20, 1 mM DTT) to remove unbound ligand and to reduce nonspecific binding.
The binding reaction was assembled by combining 16 μl of DNA-tagged kinase extract, 3.8 μl liganded affinity beads, and 0.18 μl test compound (PBS/0.05% Tween 20/10 mM DTT/0.1% BSA/2 μg/ml sonicated salmon sperm DNA)]. Extracts were used directly in binding assays without any enzyme purification steps at a ≥10,000-fold overall stock dilution (final DNA-tagged enzyme concentration <0.1 nM). Extracts were loaded with DNA-tag and diluted into the binding reaction in a two step process. First extracts were diluted 1:100 in 1× binding buffer (PBS/0.05% Tween 20/10 mM DTT/0.1% BSA/2 μg/ml sonicated salmon sperm DNA) containing 10 nM DNA-tag. This dilution was allowed to equilibrate at room temperature for 15 minutes and then subsequently diluted 1:100 in 1× binding buffer. Test compounds were prepared as 111× stocks in 100% DMSO. Kds were determined using an 11-point 3-fold compound dilution series with three DMSO control points. All compounds for Kd measurements are distributed by acoustic transfer (non-contact dispensing) in 100% DMSO. The compounds were then diluted directly into the assays such that the final concentration of DMSO was 0.9%. All reactions performed in polypropylene 384-well plates. Each was a final volume of 0.02 mL. Assays were incubated with shaking for 1 hour at room temperature. Then the beads were pelleted and washed with wash buffer (1×PBS, 0.05% Tween 20) to remove displaced kinase and test compound. The washed based were re-suspended in elution buffer (1×PBS, 0.05% Tween 20, 0.5 μM non-biotinylated affinity ligand) and incubated at room temperature with shaking for 30 minutes. The kinase concentration in the eluates was measured by qPCR. qPCR reactions were assembled by adding 2.5 μL of kinase eluate to 7.5 μL of qPCR master mix containing 0.15 μM amplicon primers and 0.15 μM amplicon probe. The qPCR protocol consisted of a 10 minute hot start at 95° C., followed by 35 cycles of 95° C. for 15 seconds, 60° C. for 1 minute.
Test compounds were prepared as 111× stocks in 100% DMSO. Kds were determined using an 11-point 3-fold compound dilution series with three DMSO control points. All compounds for Kd measurements are distributed by acoustic transfer (non-contact dispensing) in 100% DMSO. The compounds were then diluted directly into the assays such that the final concentration of DMSO was 0.9%. The Kds were determined using a compound top concentration of 30,000 nM. Kd measurements were performed in duplicate.
Binding constants (Kds) were calculated with a standard dose-response curve using the Hill equation: […]
The Hill Slope was set to −1. […]

human TYK2 (JH2domain-pseudokinase), sequence (P29597 556-888): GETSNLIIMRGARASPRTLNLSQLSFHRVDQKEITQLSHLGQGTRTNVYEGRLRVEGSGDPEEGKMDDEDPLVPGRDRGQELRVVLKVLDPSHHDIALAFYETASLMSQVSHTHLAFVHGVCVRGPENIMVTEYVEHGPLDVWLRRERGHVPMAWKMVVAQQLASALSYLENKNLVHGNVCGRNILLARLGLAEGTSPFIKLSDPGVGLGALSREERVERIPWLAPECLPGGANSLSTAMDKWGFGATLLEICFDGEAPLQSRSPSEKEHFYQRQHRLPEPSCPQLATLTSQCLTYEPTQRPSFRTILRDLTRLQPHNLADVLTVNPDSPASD

Compound	Kd [nM]
COc1c(Nc2cc(Nc3ccc(C(C)C)c(C#N)n3)nc3[nH]c(C)nc23)cccc1-c1nnn(C)n1 [I-115, 3-isopropyl-6-((7-((2-methoxy-3-(2-methyl-2H-tetrazol-5-yl)phenyl)amino)-2-methyl-3H-imidazo[4,5-b]pyridin-5-yl)amino)picolinonitrile]	1 to 10
Cc1nc2c(Nc3ccc(C4CCC(C)(C)CO4)cc3S(C)(=O)=O)cc(NC(=O)C3CC3)nc2[nH]1 (centres unmarked) [I-536, N-(7-((4-(5,5-dimethyltetrahydro-2H-pyran-2-yl)-2-(methylsulfonyl)phenyl)amino)-2-methyl-3H-imidazo[4,5-b]pyridin-5-yl)cyclopropanecarboxamide]	< 0.1
COc1c(Nc2cc(NC(=O)C3CC3)nc3[nH]c(C)nc23)cccc1-c1nc(C)nn1C [I-114, N-(7-((3-(1,3-dimethyl-1H-1,2,4-triazol-5-yl)-2-methoxyphenyl)amino)-2-methyl-3H-imidazo[4,5-b]pyridin-5-yl)cyclopropanecarboxamide]	1 to 10
C[S@+]([O-])c1ccccc1Nc1cc(NC(=O)C2CC2)nc2[nH]c(C(F)F)nc12 [I-297, (S)—N-(2-(difluoromethyl)-7-((2-(methylsulfinyl)phenyl)amino)-3H-imidazo[4,5-b]pyridin-5-yl)cyclopropanecarboxamide]	0.5 to 1
Cc1nc2c(Nc3ccc(C4CCC(F)(F)CO4)cc3S(C)(=O)=O)cc(NC(=O)C3CC3)nc2[nH]1 (centres unmarked) [I-572, N-(7-((4-(5,5-difluorotetrahydro-2H-pyran-2-yl)-2-(methylsulfonyl)phenyl)amino)-2-methyl-3H-imidazo[4,5-b]pyridin-5-yl)cyclopropanecarboxamide]	0.1 to 0.5
COc1c(Nc2cc(NC(=O)C3CC3)nc3[nH]c(C)nc23)ccc(-c2nn(C)cc2C)c1F [I-557, N-(7-((4-(1,4-dimethyl-1H-pyrazol-3-yl)-3-fluoro-2-methoxyphenyl)amino)-2-methyl-3H-imidazo[4,5-b]pyridin-5-yl)cyclopropanecarboxamide]	> 10
Cc1nc2c(Nc3ccccc3N(C)S(C)(=O)=O)cc(Nc3cccc(C(F)(F)F)n3)nc2[nH]1 [I-127, N-methyl-N-(2-((2-methyl-5-((6-(trifluoromethyl)pyridin-2-yl)amino)-3H-imidazo[4,5-b]pyridin-7-yl)amino)phenyl)methanesulfonamide]	0.1 to 0.5
COc1c(Nc2cc(Nc3cnc(N4CCOCC4)c(C#N)n3)nc3[nH]c(C(F)F)nc23)cccc1-c1nnn(C)n1 [I-47, 6-((2-(difluoromethyl)-7-((2-methoxy-3-(2-methyl-2H-tetrazol-5-yl)phenyl)amino)-3H-imidazo[4,5-b]pyridin-5-yl)amino)-3-morpholinopyrazine-2-carbonitrile]	1 to 10
Cc1nc2c(Nc3ccc(Cl)cc3S(C)(=O)=O)cc(Nc3cccc(C#N)n3)nc2[nH]1 [I-186, 6-((7-((4-chloro-2-(methylsulfonyl)phenyl)amino)-2-methyl-3H-imidazo[4,5-b]pyridin-5-yl)amino)picolinonitrile]	0.1 to 0.5
Cc1nc2c(Nc3ccc(-c4cn(C)nc4C)cc3N(C)S(C)(=O)=O)cc(NC(=O)C3CC3)nc2[nH]1 [I-194, N-(7-((4-(1,3-dimethyl-1H-pyrazol-4-yl)-2-(N-methylmethylsulfonamido)phenyl)amino)-2-methyl-3H-imidazo[4,5-b]pyridin-5-yl)cyclopropanecarboxamide]	> 10
Cc1nc2c(Nc3ccc([C@@H]4CCCCO4)cc3S(C)(=O)=O)cc(NC(=O)[C@@H]3CC3(F)F)nc2[nH]1 (stereo in doubt) [I-324, 2,2-difluoro-N-(2-methyl-7-((2-(methylsulfonyl)-4-((R)-tetrahydro-2H-pyran-2-yl)phenyl)amino)-3H-imidazo[4,5-b]pyridin-5-yl)cyclopropane-1-carboxamide]	1 to 10
CN(c1cc(-c2cnn(C)c2)ccc1Nc1cc(NC(=O)[C@@H]2C[C@@H]2F)nc2[nH]c(C(F)F)nc12)S(C)(=O)=O (stereo in doubt) [Compound I-207]	0.1 to 0.5
CN(c1cc(-c2cncn2C)ccc1Nc1cc(NC(=O)[C@H]2CC2(F)F)nc2[nH]c(C(F)F)nc12)S(C)(=O)=O [I-271, (R)—N-(2-(difluoromethyl)-7-((4-(1-methyl-1H-imidazol-5-yl)-2-(N-methylmethylsulfonamido)phenyl)amino)-3H-imidazo[4,5-b]pyridin-5-yl)-2,2-difluorocyclopropane-1-carboxamide]	1 to 10
Cn1ccc(-c2ccc(Nc3cc(NC(=O)C4CC4)nc4[nH]c(C(F)F)nc34)c(S(C)(=O)=O)c2)n1 [I-148, N-(2-(difluoromethyl)-7-((4-(1-methyl-1H-pyrazol-3-yl)-2-(methylsulfonyl)phenyl)amino)-3H-imidazo[4,5-b]pyridin-5-yl)cyclopropanecarboxamide]	0.1 to 0.5
Cc1ccc(Nc2cc(NC(=O)C3CC3)nc3[nH]c(C)nc23)c(N(C)S(C)(=O)=O)c1 [I-131, N-(2-methyl-7-((4-methyl-2-(N-methylmethylsulfonamido)phenyl)amino)-3H-imidazo[4,5-b]pyridin-5-yl)cyclopropanecarboxamide]	0.5 to 1

Now from value to molecule:

Kd [nM]	Compound
0.1 to 0.5	CS(=O)(=O)c1cc(C2CCCOC2)ccc1Nc1cc(NC(=O)C2CC2)nc2[nH]c(C(F)F)nc12 (centres unmarked) [I-391, N-(2-(difluoromethyl)-7-((2-(methylsulfonyl)-4-(tetrahydro-2H-pyran-3-yl)phenyl)amino)-3H-imidazo[4,5-b]pyridin-5-yl)cyclopropanecarboxamide]
0.5 to 1	Cc1nc2c(Nc3ccc(-c4cnn(C)c4)cc3N(C)S(C)(=O)=O)cc(NC(=O)[C@H]3C[C@@H]3F)nc2[nH]1 [I-372, (1R,2S)-2-fluoro-N-(2-methyl-7-((4-(1-methyl-1H-pyrazol-4-yl)-2-(N-methylmethylsulfonamido)phenyl)amino)-3H-imidazo[4,5-b]pyridin-5-yl)cyclopropane-1-carboxamide]
< 0.1	C#Cc1cccc(Nc2cc(Nc3ccccc3S(C)(=O)=O)c3nc(C)[nH]c3n2)n1 [I-547, N5-(6-ethynylpyridin-2-yl)-2-methyl-N7-(2-(methylsulfonyl)phenyl)-3H-imidazo[4,5-b]pyridine-5,7-diamine]
0.5 to 1	Cc1nc2c(Nc3ccc(-c4ccn(C)n4)cc3S(C)(=O)=O)cc(NC(=O)C3CC3(F)F)nc2[nH]1 (centres unmarked) [I-377, 2,2-difluoro-N-(2-methyl-7-((4-(1-methyl-1H-pyrazol-3-yl)-2-(methylsulfonyl)phenyl)amino)-3H-imidazo[4,5-b]pyridin-5-yl)cyclopropane-1-carboxamide]
0.1 to 0.5	Cc1nc2c(Nc3ccc(-c4cncn4C)cc3S(C)(=O)=O)cc(NC(=O)C3CC3(F)F)nc2[nH]1 (centres unmarked) [I-382, 2,2-difluoro-N-(2-methyl-7-((4-(1-methyl-1H-imidazol-5-yl)-2-(methylsulfonyl)phenyl)amino)-3H-imidazo[4,5-b]pyridin-5-yl)cyclopropane-1-carboxamide]
< 0.1	COCCOc1ccc(Nc2cc(Nc3ccccc3S(C)(=O)=O)c3nc(C(F)F)[nH]c3n2)nc1C#N [I-619, 6-((2-(difluoromethyl)-7-((2-(methylsulfonyl)phenyl)amino)-3H-imidazo[4,5-b]pyridin-5-yl)amino)-3-(2-methoxyethoxy)picolinonitrile]
< 0.1	CS(=O)(=O)c1ccccc1Nc1cc(Nc2cc3c(nn2)CCC3)nc2[nH]c(C(F)F)nc12 [I-392]
< 0.1	COCc1ccc(Nc2cc(Nc3ccccc3S(C)(=O)=O)c3nc(C)[nH]c3n2)nn1 [I-521]
